In article PMC4745691, “New therapeutic strategies in neuroblastoma: combined targeting of a novel tyrosine kinase inhibitor and liposomal siRNAs against ALK” (Oncotarget, 2015):

Test: Tolerability in subcutaneous NB model (MTD, adverse effects, body weight)
Assay type: in vivo
Conditions: 50 mg/kg BID oral gavage, NB-bearing mice
Description: In other set of experiments, Balb/c nude mice were xenografted with SH-SY5Y cells as earlier. […] Tumors were measured twice weekly using callipers, and volume was calculated using the formula: Length × Width^2 × 0.5. Body weight was also assessed twice weekly. The experiment was terminated after 3 weeks of treatment.

C[C@@H](Oc1cc(-c2cnn(C3CCNCC3)c2)cnc1N)c1c(Cl)ccc(F)c1Cl [crizotinib, Crizotinib]
mice weight over time: No signs of severe weight
